{"source": "paper PMC9503518", "about": "“Antibacterial and Antifungal Properties of a Novel Antimicrobial Peptide GK-19 and Its Application in Skin and Soft Tissue Infections Induced by MRSA or Candida albicans” (Pharmaceutics, 2022)", "key": {"[1]": {"assay": "Peptide stability in water by HPLC", "type": "physicochemical", "details": "10 mg/mL in water, 37 °C, 200 rpm, 0 and 48 h, HPLC 220 nm, repeated three times", "description": "(§1) Antimicrobial peptides were dissolved in water or rat serum with a concentration of 10 mg/mL. The solution was incubated at 37 °C, 200 rpm for different time periods, and diluted 50 times for the HPLC analysis. In water, the incubation time was 0 h and 48 h. In rat serum, the incubation time was 0, 2, 4, 7, 12, 24 or 48 h. Each incubation condition was repeated three times. HPLC was conducted on a Waters HPLC system, which consisted of a 2996 photodiode array detector, a 2695 separation module and a temperature control column oven. Column: Sinochrom ODS-BP, 5 μm, 4.6 × 250 mm (Dalian Elite Analytical Instruments Co., Ltd., Dalian, China). Mobile phase: A: 100% ACN + 0.1% TFA; B: 100% Water + 0.1% TFA. Gradient elution: 0–20 min, 95% B–100% A; 20–25 min, 100% A. Detection wavelength: 220 nm. Flow rate: 1 mL/min. Sample volume: 50 μL (0.2 mg/mL)."}, "MRSA": {"test_system": "MRSA", "description": "(§2) The scalded mice models combined with SSTIs by MRSA or C. albicans were constructed. Fifty normal male Kunming mice (5–6 weeks old) weighing ~25 g were anesthetized by isoflurane using a small animal anesthesia machine (R640, RWD Life Science, China). After skin preparation and disinfection, a custom-made circular iron (diameter: 8 mm) (shown in Figure S4) was applied to both sides of the spine of the mice for 10 s at 300 °C, resulting in four scalded wounds. Mice were injected subcutaneously with 5 mg/kg meloxicam (Aladdin, Shanghai, China) for four days (once per day) after scalding for pain relief. Two days after scalding, the skin tissues of the scalded areas were removed carefully, and about 30 μL of 1 × 10^7 CFU/mL of MRSA or C. albicans was applied evenly onto the surfaces of the wounds. The mice were returned to the original feeding environment after the microbial fluid was completely absorbed (1.5–2 h), with two mice per cage. Corncob granules with SPF level were used as padding.\n(§3) Two days after microbe inoculating, the scalded wounds of each mouse were divided into four groups randomly. […] The mice were returned to the original feeding environment after the solutions were completely absorbed. The treatment lasted for 12–16 days. Photographs of the wound areas were taken every two days using an iPhone 11 and the wound areas were measured every two days using Image J software (152-win-java8, Bethesda, MD, USA). The average wound areas on day two were used as the reference (100% unhealed) to normalized wound areas. Skin tissues of the wound areas were removed carefully at different time points (n = 5 for each time point) and weighted in a sterile environment. For MRSA infection, 10 mg of the wound tissues was dispersed into 1000 μL of sterile saline solution and the tissue solution was ground into suspension in a tissuelyser (Tissuelyser LT, Servicebio). Then, the tissue suspension was diluted with sterile saline solution 10 times and plated on MHA with a sample volume of 50 μL. For C. albicans infection, 10 mg of the wound tissues was dispersed into 200 μL of sterile saline solution and the tissue solution was also ground into suspension in the tissuelyser. The tissue suspension was then plated on PDA directly with a sample volume of 20 μL. After culturing overnight, the colonies were counted using Image J software or human eyes. In addition, the skin tissues of the wound area were removed carefully at different time points and dispersed into a 4% paraformaldehyde solution for further use.\n(§4) The hematoxylin and eosin staining in this study was carried out by Servicebio (Wuhan, China). Briefly, the obtained skin tissues were soaked in 4% paraformaldehyde solution (Beyotime, China) and fixed for more than 24 h. Then, they were dehydrated and embedded with paraffin, and tissue sections having thicknesses of 4 μm were prepared. After deparaffinization and rehydration, hematoxylin and eosin staining was performed."}, "[2]": {"details": "unstable in serum; cited from earlier work", "source_text": "The venom of scorpions, which has been proven to kill Gram-negative and Gram-positive bacteria, fungi, viruses and even tumor cells, are a rich source of antimicrobial peptides. Androctonus amoreuxi Antimicrobial Peptide 1 (AamAP1), identified from the venom-derived cDNA library of the North African scorpion, Androctonus amoeruxi, is a new type of host defense peptide. With broad-spectrum antimicrobial properties, it has been posited that AamAP1 kills bacteria cells through membrane disruption, which will not induce bacterial resistance. However, there are still some disadvantages in us ..."}, "[3]": {"test_system": "Escherichia coli (E. coli, ATCC25922)", "type": "cell-based", "details": "1 × 10^6 CFU/mL, MHB, 12 h, peptide 0-20 μM, absorbance at 600 nm, n = 5", "source_text": "(§5) Pseudomonas aeruginosa (P. aeruginosa, ATCC27853), Methicillin-Resistant Staphylococcus aureus (MRSA, 2104270609, clinically isolated strain), Escherichia coli (E. coli, ATCC25922), Klebsiella pneumoniae (K. pneumoniae, ATCC700603), Enterococcus faecalis (E. faecalis, ATCC29212), Candida krusei (C. krusei, ATCC6258), Candida albicans (C. albicans, ATCC90028), and Candida glabrata (C. glabrata, ATCCMYA-2950) were obtained from the First Affiliated Hospital of Xi’an Jiaotong University. Bacterial strains were cultured in MHA or MHB. Fungal strains were cultured in PDA or PDB.\n(§6) Strains were incubated in MHB or PDB. After growing for 12–16 h at 37 °C, 200 rpm, 100 μL of 1 × 10^6 CFU/mL of the strains was seeded into 96-well plates and incubated with fresh culture medium containing various antimicrobial peptides (peptide concentration: 0, 0.5, 1.0, 2.0, 3.0, 5.0, 10, 15 or 20 μM) for 12 h. Each concentration was repeated five times. Absorbance at 600 nm was measured using the Multilabel Reader Varioskan Flash (Thermo Fisher). […] (1)"}, "[4]": {"test_system": "Candida albicans (C. albicans, ATCC90028)", "type": "cell-based", "details": "1 × 10^6 CFU/mL, PDB, 12 h, peptide 0-20 μM, absorbance at 600 nm, n = 5", "source_text": "as §5, §6"}, "[5]": {"test_system": "Candida krusei (C. krusei, ATCC6258)", "type": "cell-based", "details": "12 h, absorbance at 600 nm, n = 5", "source_text": "as §5, §6"}, "[6]": {"test_system": "Methicillin-Resistant Staphylococcus aureus (MRSA, 2104270609, clinically isolated strain)", "type": "cell-based", "details": "1 × 10^6 CFU/mL, MHB, 12 h, peptide 0-20 μM, absorbance at 600 nm, n = 5", "source_text": "as §5, §6"}, "[7]": {"test_system": "Enterococcus faecalis (E. faecalis, ATCC29212)", "type": "cell-based", "details": "1 × 10^6 CFU/mL, MHB, 12 h, peptide 0-20 μM, absorbance at 600 nm, n = 5", "source_text": "as §5, §6"}, "[8]": {"test_system": "Klebsiella pneumoniae (K. pneumoniae, ATCC700603)", "type": "cell-based", "details": "1 × 10^6 CFU/mL, MHB, 12 h, peptide 0-20 μM, absorbance at 600 nm, n = 5", "source_text": "as §5, §6"}, "[9]": {"test_system": "Candida glabrata (C. glabrata, ATCCMYA-2950)", "type": "cell-based", "details": "1 × 10^6 CFU/mL, PDB, 12 h, peptide 0-20 μM, absorbance at 600 nm, n = 5", "source_text": "as §5, §6"}, "[10]": {"test_system": "Pseudomonas aeruginosa (P. aeruginosa, ATCC27853)", "type": "cell-based", "details": "1 × 10^6 CFU/mL, MHB, 12 h, peptide 0-20 μM, absorbance at 600 nm, n = 5", "source_text": "as §5, §6"}, "[11]": {"assay": "Peptide stability in rat serum by HPLC", "type": "in vitro ADME", "details": "10 mg/mL in rat serum, 37 °C, 200 rpm, repeated three times", "description": "as §1"}, "C. albicans": {"test_system": "C. albicans", "details": "topical 50 μM twice a day", "description": "as §2, §3, §4"}, "[12]": {"details": "C. albicans-infected scald wounds, mice, n = 10"}, "[13]": {"details": "colony count of wound tissue on PDA, n = 5"}}, "note": "Structures can show the parent of a compound that is named as a salt. Where no end group is shown, it is not given here."}
{"compound": "CC[C@H](C)[C@H](NC(=O)[C@H](C)NC(=O)[C@H](Cc1c[nH]cn1)NC(=O)[C@@H]1CCCN1C(=O)[C@@H](NC(=O)[C@H](CC(C)C)NC(=O)[C@H](CO)NC(=O)[C@H](Cc1ccccc1)NC(=O)[C@H](CC(C)C)NC(=O)[C@@H](N)Cc1ccccc1)[C@@H](C)CC)C(=O)NCC(=O)NCC(=O)N[C@@H](CC(C)C)C(=O)N[C@H](C(=O)N[C@@H](CO)C(=O)N[C@@H](C)C(=O)N[C@@H](Cc1ccccc1)C(=O)N[C@@H](CCCCN)C(=O)O)[C@@H](C)CC", "note": "[AamAP1, Androctonus amoreuxi Antimicrobial Peptide 1, reference compound]", "values": [{"measurement": "time for which structural stability was retained in water", "setting": "[1]", "result": "≥ 48", "unit": "h"}, {"measurement": "MRSA suppressed (inhibition rate) at day eight compared with saline solution groups", "setting": "MRSA; mouse, in vivo, 2 h, 50 μM", "result": "more than 90%"}, {"measurement": "predicted half-life", "setting": "[2]", "result": "less than two hours"}, {"measurement": "Minimum inhibitory concentration (MIC), E. coli", "setting": "[3]", "result": "> 20", "unit": "µM"}, {"measurement": "Minimum inhibitory concentration (MIC), C. albicans", "setting": "[4]", "result": "> 20", "unit": "µM"}, {"measurement": "Minimum inhibitory concentration (MIC), C. krusei", "setting": "[5]; 1 × 10^6 CFU/mL, PDB, peptide 0-20 μM", "result": 20, "unit": "µM"}, {"measurement": "inhibition of C. krusei", "setting": "[5]; within 0-20 μM", "result": 90, "unit": "%"}, {"measurement": "Minimum inhibitory concentration (MIC), MRSA", "setting": "[6]", "result": "> 20", "unit": "µM"}, {"measurement": "Minimum inhibitory concentration (MIC), E. faecalis", "setting": "[7]", "result": "> 20", "unit": "µM"}, {"measurement": "Minimum inhibitory concentration (MIC), K. pneumoniae", "setting": "[8]", "result": "> 20", "unit": "µM"}, {"measurement": "Minimum inhibitory concentration (MIC), C. glabrata", "setting": "[9]", "result": "> 20", "unit": "µM"}, {"measurement": "Minimum inhibitory concentration (MIC), P. aeruginosa", "setting": "[10]", "result": "> 20", "unit": "µM"}, {"measurement": "metabolised at 7 h, 10 mg/mL", "setting": "[11]; 7 h, HPLC peak area 220 nm, read-out: peptide degraded after seven hours of co-incubation with rat serum", "result": "> 65", "unit": "%"}, {"measurement": "change of HPLC peak after incubation in rat serum for two hours", "setting": "[11]; two hours, HPLC 220 nm", "result": "position of its chromatographic peak moved backward"}]}
{"compound": "CCC[C@@H]1C[C@@H](C(=O)N[C@@H]([C@H]2O[C@H](SC)[C@H](O)[C@@H](O)[C@H]2O)[C@H](C)Cl)N(C)C1", "note": "[CDHC, clindamycin hydrochloride]", "values": [{"measurement": "wound area healed on day eight", "setting": "MRSA; MRSA-infected scald wounds, mice, topical 50 μM twice a day, day 2 area = 100% unhealed, n = 10", "result": "more than 45%"}, {"measurement": "unhealed wounds on day 16", "setting": "MRSA; MRSA-infected scald wounds, mice, topical 50 μM twice a day, n = 10", "result": "completely disappeared"}]}
{"compound": "OC(Cn1cncn1)(Cn1cncn1)c1ccc(F)cc1F", "note": "[FCZ, fluconazole]", "values": [{"measurement": "area of the wounds healed on day 10", "setting": "C. albicans; [12]", "result": "more than 95%"}, {"measurement": "unhealed wounds on day 12", "setting": "C. albicans; [12]", "result": "completely disappeared"}, {"measurement": "C. albicans in wound tissue on day 12", "setting": "C. albicans; [13]", "result": "no C. albicans detected"}, {"measurement": "C. albicans suppressed (inhibition rate) at day eight compared with saline solution groups", "setting": "C. albicans; [13]", "result": "~ 98%"}]}
{"compound": "FLFKLIPKAIKKLISKFK [AamAP1-Lysine]", "values": [{"measurement": "predicted half-life", "setting": "[2]", "result": "less than two hours"}]}
